These results are taken from article PMC3756011, “Evaluation of Memory Enhancing Clinically Available Standardized Extract of Bacopa monniera on P-Glycoprotein and Cytochrome P450 3A in Sprague-Dawley Rats” (PLoS ONE, 2013).

Each structure is given as a SMILES string.

Data set [1] is described as follows: Oral pharmacokinetics of carbamazepine and carbamazepine 10,11-epoxide with and without BM pre-treatment. Conditions: for Cmax / AUC(0-∞) / MRT / CL/F / AUC(0-inf): Mean ± SD. Format: in vivo, male Sprague-Dawley rat. How it is done: Samples were vigorously vortexed for five minutes and centrifuged at 12,000 rpm for 20 minutes at 4°C. Supernatant thus obtained were analysed using HPLC-UV method. […] Column efﬂuent was monitored at 286 nm. The mobile phase was a mixture of 10 mM ammonium acetate (pH 7.4) and acetonitrile (65∶35). Chromatography was performed at a ﬂow rate of 1.0 ml/min. Pharmacokinetic parameters of probe drugs in plasma were derived from plasma concentration-time profile of probe drugs by Non-Compartmental analysis using WinNonlin Ver 5.1 (Pharsight Corporation, Mountain Veiw, CA).

A short description of data set [2]: Oral pharmacokinetics of digoxin with and without BM pre-treatment. Format: in vivo, male Sprague-Dawley rat. Conditions: for AUC(0-inf) / CL/F / MRT / Vd/F / half-life / Cmax: male, Sprague-Dawley, rat, plasma, po, 0.2 mg/kg. From the text:
Rats were divided in two groups (total 40 rats; 10 rats each group) for both probe drugs viz. control and BM pre-treated group.
Pharmacokinetic parameters of probe drugs in plasma were derived from plasma concentration-time profile of probe drugs by Non-Compartmental analysis using WinNonlin Ver 5.1 (Pharsight Corporation, Mountain Veiw, CA).

The conditions of data set [3]: 2 hours after digoxin 0.2 mg/kg oral, BM pretreated vs vehicle.
A further data set has as its system Pgp. More on the design: method as in PMID 11318771. The settings on record: earlier reports; cited from earlier work.
On the set-up of data set [4]: method as in PMID 15673597. Conditions: rat vs human; cited from earlier work.
Setting [5] is: BM pretreated rats (31 mg/kg/day 7 days), carbamazepine 50 mg/kg oral.
[6] abbreviates: vehicle pretreated rats, carbamazepine 50 mg/kg oral.
[7] abbreviates: BM pre-treated compared to vehicle treated rats.
Setting [8] is: BM pre-treated vs vehicle treated rats, abstract.
Setting [9] is: BM pretreated rats (31 mg/kg/day 7 days), digoxin 0.2 mg/kg oral.
[10] abbreviates: vehicle pretreated rats, digoxin 0.2 mg/kg oral.
The mark [11] stands for this setting: BM pretreated compared to vehicle pretreated rats.

For `NC(=O)N1c2ccccc2C2OC2c2ccccc21` (stereo not drawn) [CBZ-E, carbamazepine 10,11-epoxide], the Cmax in data set [1] (BM pretreated rats (31 mg/kg/day 7 days), carbamazepine 50 mg/kg oral 24 h after last BM) amounted to 819 ± 170 ng/mL. Further, in data set [1] (setting [5]), the “AUC(0-∞)” value stood at 15100 ± 7360 ng·h/mL and the MRT stood at 21.65 ± 7.69 h. Besides, in data set [1] (setting [6]), the “AUC(0-∞)” value amounted to 14680 ± 2900 ng·h/mL, the CL/F amounted to 3.31 ± 0.56 mL/h/kg, the Cmax was 1370 ± 11 ng/mL and the MRT amounted to 10.05 ± 0.33 h.

Regarding `C[C@H]1O[C@@H](O[C@H]2[C@@H](O)C[C@H](O[C@H]3[C@@H](O)C[C@H](O[C@H]4CC[C@@]5(C)[C@H](CC[C@@H]6[C@@H]5C[C@@H](O)[C@]5(C)[C@@H](C7=CC(=O)OC7)CC[C@]65O)C4)O[C@@H]3C)O[C@@H]2C)C[C@H](O)[C@@H]1O` [Digoxin, digoxin], in data set [2] (setting [7]), the “decrease in CL/F with BM pre-treatment” value was 27%, the “increase in AUC with BM pre-treatment” value was determined as 37%, the “increase in Cmax with BM pre-treatment” value turned out to be 9% and the “increase in MRT with BM pre-treatment” value is listed as 17%. The “increase in T1/2 with BM pre-treatment” value in data set [2] (setting [7]) is listed as 48%. Further, the “increase in AUC following BM pre-treatment” value in data set [2] (setting [8]) was determined as 1.3 fold. In data set [2] (setting [9]), the AUC(0-inf) was determined as 70.71 ± 0.351 ng·h/mL, the CL/F was 3.53 mL/h/kg, the MRT stood at 8.88 ± 1.28 h and the Vd/F amounted to 0.0221 ± 0.0103 L/kg. In addition, the half-life in data set [2] (setting [9]) was 4.33 ± 2.03 h. In addition, the Cmax in data set [2] (BM pretreated rats (31 mg/kg/day 7 days), digoxin 0.2 mg/kg oral 24 h after last BM) amounted to 5.28 ± 0.205 ng/mL. Moreover, in data set [2] (setting [10]), the AUC(0-inf) came out at 51.5 ± 6.1 ng·h/mL, the CL/F was 4.88 mL/h/kg, the Cmax came to 4.82 ± 0.092 ng/mL and the MRT was 7.56 ± 0.0147 h. In data set [2] (setting [10]), the Vd/F worked out at 0.0208 ± 0.00471 L/kg and the half-life was 2.92 ± 0.322 h. In addition, in data set [3] (intestine), the “increase in tissue digoxin concentration in intestine” value is recorded as 1.3 fold. Further, the “increase in tissue digoxin concentration in kidney” value in data set [3] (kidney) is 1.3 fold.

Consider `NC(=O)N1c2ccccc2C=Cc2ccccc21` [CBZ, carbamazepine], for which the “increase in AUC following BM pre-treatment” value in data set [1] (setting [8]) is listed as 4 fold. Moreover, the “increase in Cmax following BM pre-treatment” value in data set [1] (setting [8]) stood at 1.8 fold. The “decrease in CL/F in BM pretreated rats” value in data set [1] (setting [11]) came out at 3.8 times. In data set [1] (setting [11]), the “increase in mean AUC in BM pretreated rats” value is 4 times. In addition, in data set [1] (setting [11]), the “increase in mean Cmax in BM pretreated rats” value was determined as 1.8 times. Also, the CL/F is 323 mL/h/kg in data set [1] (male, Sprague-Dawley, rat, in vivo, po, 50 mg/kg, BM pretreated rats (31 mg/kg/day 7 days), carbamazepine 50 mg/kg oral, read-out: CL/F (converted)) and 1250 mL/h/kg in data set [1] (male, Sprague-Dawley, rat, in vivo, po, 50 mg/kg, vehicle pretreated rats, carbamazepine 50 mg/kg oral, read-out: CL/F (converted)). Also, the Cmax is 14400 ± 1220 ng/mL in data set [1] (male, Sprague-Dawley, rat, plasma, po, 50 mg/kg, BM pretreated rats (31 mg/kg/day 7 days), carbamazepine 50 mg/kg oral 24 h after last BM, read-out: Cmax) and 8170 ± 1460 ng/mL in data set [1] (male, Sprague-Dawley, rat, plasma, po, 50 mg/kg, vehicle pretreated rats, carbamazepine 50 mg/kg oral, read-out: Cmax). The AUC(0-inf) in data set [1] (male, Sprague-Dawley, rat, plasma, po, 50 mg/kg, BM pretreated rats (31 mg/kg/day 7 days), carbamazepine 50 mg/kg oral) turned out to be 169000 ± 65600 ng·h/mL; in data set [1] (male, Sprague-Dawley, rat, plasma, po, 50 mg/kg, vehicle pretreated rats, carbamazepine 50 mg/kg oral), 40400 ± 3890 ng·h/mL. Besides, the MRT in data set [1] (male, Sprague-Dawley, rat, plasma, po, 50 mg/kg, BM pretreated rats (31 mg/kg/day 7 days), carbamazepine 50 mg/kg oral, read-out: MRT) worked out at 10.7 ± 6.57 h; in data set [1] (male, Sprague-Dawley, rat, plasma, po, 50 mg/kg, vehicle pretreated rats, carbamazepine 50 mg/kg oral, read-out: MRT), 5.46 ± 1.2 h. In addition, the Pgp substrate status entry in the data set on Pgp is on record as “not a Pgp substrate”. In addition, the “metabolic clearance, rat higher compared to human” value in data set [4] was 10 fold.
